For experiment [1], the target named is T1, Amine oxidase [flavin-containing] B (Homo sapiens, UniProt P27338).
T1 sequence (P27338 whole entry): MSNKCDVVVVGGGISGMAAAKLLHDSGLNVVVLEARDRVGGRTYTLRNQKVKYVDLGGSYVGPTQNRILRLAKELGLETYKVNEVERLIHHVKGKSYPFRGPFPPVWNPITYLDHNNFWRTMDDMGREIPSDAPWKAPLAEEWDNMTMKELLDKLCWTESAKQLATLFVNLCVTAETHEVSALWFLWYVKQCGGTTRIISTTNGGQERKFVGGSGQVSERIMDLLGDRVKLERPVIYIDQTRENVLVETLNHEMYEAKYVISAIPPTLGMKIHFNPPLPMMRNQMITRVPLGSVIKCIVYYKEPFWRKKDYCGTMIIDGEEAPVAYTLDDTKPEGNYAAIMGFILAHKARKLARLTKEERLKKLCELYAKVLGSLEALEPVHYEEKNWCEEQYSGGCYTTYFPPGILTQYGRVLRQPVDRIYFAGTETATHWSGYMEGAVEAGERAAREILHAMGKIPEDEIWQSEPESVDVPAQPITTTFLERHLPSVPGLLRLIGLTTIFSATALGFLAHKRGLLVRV
As to the kind of experiment: Inhibiting activity of the compound was determined against human Monoamine oxidase B.

The target of experiment [2] is T2, Amine oxidase [flavin-containing] A (Bos taurus, UniProt P21398).
T2 sequence (P21398 whole entry): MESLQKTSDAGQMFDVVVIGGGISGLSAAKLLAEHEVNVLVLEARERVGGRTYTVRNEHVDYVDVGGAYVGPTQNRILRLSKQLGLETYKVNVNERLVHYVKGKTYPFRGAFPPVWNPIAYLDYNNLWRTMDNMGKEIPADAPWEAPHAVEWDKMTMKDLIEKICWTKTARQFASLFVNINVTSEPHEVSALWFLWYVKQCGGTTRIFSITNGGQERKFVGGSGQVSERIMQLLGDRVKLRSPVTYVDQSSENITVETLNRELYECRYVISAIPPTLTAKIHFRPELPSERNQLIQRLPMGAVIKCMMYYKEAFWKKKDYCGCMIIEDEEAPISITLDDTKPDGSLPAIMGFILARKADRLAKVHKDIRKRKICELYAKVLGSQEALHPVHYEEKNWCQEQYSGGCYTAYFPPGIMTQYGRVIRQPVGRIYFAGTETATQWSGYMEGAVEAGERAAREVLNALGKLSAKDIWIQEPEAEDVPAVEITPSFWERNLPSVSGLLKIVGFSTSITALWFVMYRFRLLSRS
The experiment is described as follows: Inhibiting activity of the compound was determined against bovine Monoamine oxidase A.

The target in experiment [3] is T3, Monoamine oxidase (Bos taurus, UniProt P56560+P21398).
T3 sequence (P56560 whole entry): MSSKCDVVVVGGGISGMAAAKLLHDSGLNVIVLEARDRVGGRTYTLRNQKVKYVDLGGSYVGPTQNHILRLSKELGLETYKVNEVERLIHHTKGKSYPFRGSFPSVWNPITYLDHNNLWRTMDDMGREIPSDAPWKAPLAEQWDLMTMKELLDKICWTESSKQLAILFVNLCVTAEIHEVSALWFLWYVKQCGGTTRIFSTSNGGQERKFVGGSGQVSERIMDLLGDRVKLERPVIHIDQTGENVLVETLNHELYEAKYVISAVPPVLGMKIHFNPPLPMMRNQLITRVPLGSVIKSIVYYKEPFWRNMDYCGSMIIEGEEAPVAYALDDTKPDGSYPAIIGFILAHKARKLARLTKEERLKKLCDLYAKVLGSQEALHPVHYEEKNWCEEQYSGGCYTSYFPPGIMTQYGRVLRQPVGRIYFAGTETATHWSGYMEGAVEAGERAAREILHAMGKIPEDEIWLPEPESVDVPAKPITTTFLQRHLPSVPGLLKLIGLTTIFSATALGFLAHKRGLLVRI
T3 sequence (P21398 whole entry): T2 sequence (P21398 whole entry)
As to the kind of experiment: Inhibitory activity against Monoamine oxidase from Bovine brain mitochondria.

Experiment [4] in a line: Inhibitory activity against Serum amine oxidase.
Experiment [5] is described as follows: Inhibitory activity against Swine kidney diamine oxidase (SKDAO); No inhibition, corresponding to value >10e-4.
Experiment [6] is described as follows: Inhibitory activity against Serum amine oxidase; No inhibition, corresponding to value >10e-4.

By Ki is commonly meant the equilibrium dissociation constant of an inhibitor or competing ligand from its target.

On to `CC(=O)N1N=C(c2ccc(O)cc2O)CC1c1cccc(C)c1` (stereo unspecified), for which the Ki in experiment [1] came to 38 nM; in experiment [2], 13 nM; in experiment [3], 50 nM; in experiment [4], 10000 nM.

In experiment [3], `CC(=O)N1N=C(c2ccccc2O)CC1c1cccc(C)c1` (stereo unspecified) displayed an inhibition constant (Ki) of 5500 nM.

On to `CC(=O)N1N=C(c2ccccc2)CC1c1ccc(Cl)cc1` (stereo unspecified), for which the Ki entry in experiment [5] was “No inhibition”; in experiment [3] it was 6000 nM; in experiment [6], “No inhibition”.

`CC(=O)N1N=C(c2ccc(O)cc2O)CC1c1ccccc1C` (stereo unspecified): the values for the Ki in experiment [1], in experiment [2] and in experiment [3] were 30 nM, 52 nM and 80 nM, respectively.

With `CC(=O)N1N=C(c2ccccc2)CC1c1cccc(C)c1` (stereo unspecified), the inhibitory constant (Ki) result in experiment [5] is “No inhibition”; in experiment [3], 200000 nM; in experiment [6] it was “No inhibition”.

Consider `CC(=O)N1N=C(c2ccccc2O)CC1c1ccccc1C` (stereo unspecified), for which the inhibition constant (Ki) in experiment [3] came to 300000 nM; in experiment [4], 57000 nM.
